Laboratory results published in ChEMBL document CHEMBL5154748, “Discovery of novel 3-butyl-6-benzyloxyphthalide Mannich base derivatives as multifunctional agents against Alzheimer's disease” (Bioorg Med Chem, 2022).
The source made the active and inactive calls. The calls are words filed in the database; no cut-off is given here.

Key:
[1] = molecular target: T1, Acetylcholinesterase (Homo sapiens, UniProt P22303); test: Inhibition of Human AChE by Ellman's method
[2] = molecular target: Acetylcholinesterase (Electrophorus electricus, UniProt O42275); test: Inhibition of Electric eel AChE by Ellman's method
Acetylcholinesterase (Electrophorus electricus, UniProt O42275), sequence (O42275 whole entry): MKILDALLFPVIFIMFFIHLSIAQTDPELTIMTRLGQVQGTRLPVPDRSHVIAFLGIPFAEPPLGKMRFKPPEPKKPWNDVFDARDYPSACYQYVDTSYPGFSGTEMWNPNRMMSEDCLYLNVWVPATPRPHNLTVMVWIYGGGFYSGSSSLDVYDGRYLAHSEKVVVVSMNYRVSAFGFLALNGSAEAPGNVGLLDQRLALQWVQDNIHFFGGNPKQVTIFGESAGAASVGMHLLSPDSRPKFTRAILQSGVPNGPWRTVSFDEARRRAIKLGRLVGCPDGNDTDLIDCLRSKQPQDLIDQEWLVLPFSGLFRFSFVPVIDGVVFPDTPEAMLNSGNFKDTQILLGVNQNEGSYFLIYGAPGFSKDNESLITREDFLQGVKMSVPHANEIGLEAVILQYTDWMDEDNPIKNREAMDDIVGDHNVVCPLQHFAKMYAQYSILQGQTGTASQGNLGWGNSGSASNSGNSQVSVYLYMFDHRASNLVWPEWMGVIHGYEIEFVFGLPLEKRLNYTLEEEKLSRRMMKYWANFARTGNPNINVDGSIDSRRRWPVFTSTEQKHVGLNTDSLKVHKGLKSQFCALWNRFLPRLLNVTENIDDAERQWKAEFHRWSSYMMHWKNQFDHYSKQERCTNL

[3] = molecular target: Butyrylcholinesterase (Rattus norvegicus) (UniProt Q9JKC1); test: Inhibition of Rat BuChE at 10 uM by Ellman's method
Butyrylcholinesterase (Rattus norvegicus), sequence (Q9JKC1 as listed by the source): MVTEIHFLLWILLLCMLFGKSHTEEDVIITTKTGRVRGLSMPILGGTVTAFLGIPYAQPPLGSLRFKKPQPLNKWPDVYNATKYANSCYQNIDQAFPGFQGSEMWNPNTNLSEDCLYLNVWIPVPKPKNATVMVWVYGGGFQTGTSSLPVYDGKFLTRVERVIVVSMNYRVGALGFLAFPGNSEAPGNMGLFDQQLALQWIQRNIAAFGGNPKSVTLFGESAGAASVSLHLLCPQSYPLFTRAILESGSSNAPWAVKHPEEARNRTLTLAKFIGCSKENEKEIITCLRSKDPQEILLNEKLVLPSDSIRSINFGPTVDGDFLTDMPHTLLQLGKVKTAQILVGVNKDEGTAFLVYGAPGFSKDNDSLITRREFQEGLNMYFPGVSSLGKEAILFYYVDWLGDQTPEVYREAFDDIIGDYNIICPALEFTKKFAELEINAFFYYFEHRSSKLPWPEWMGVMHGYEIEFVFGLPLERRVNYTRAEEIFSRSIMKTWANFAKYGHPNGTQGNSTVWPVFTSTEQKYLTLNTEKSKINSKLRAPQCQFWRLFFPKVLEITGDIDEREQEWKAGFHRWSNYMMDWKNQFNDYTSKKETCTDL

[4] = Antioxidant activity assessed as trolox equivalent of ORAC radical scavenging activity by ORAC-FL assay; assay type: functional
[5] = molecular target: T2, Amine oxidase [flavin-containing] A (Homo sapiens, UniProt P21397); test: Inhibition of human MAO-A at 10 uM by fluorescence assay
T2 sequence (P21397 whole entry): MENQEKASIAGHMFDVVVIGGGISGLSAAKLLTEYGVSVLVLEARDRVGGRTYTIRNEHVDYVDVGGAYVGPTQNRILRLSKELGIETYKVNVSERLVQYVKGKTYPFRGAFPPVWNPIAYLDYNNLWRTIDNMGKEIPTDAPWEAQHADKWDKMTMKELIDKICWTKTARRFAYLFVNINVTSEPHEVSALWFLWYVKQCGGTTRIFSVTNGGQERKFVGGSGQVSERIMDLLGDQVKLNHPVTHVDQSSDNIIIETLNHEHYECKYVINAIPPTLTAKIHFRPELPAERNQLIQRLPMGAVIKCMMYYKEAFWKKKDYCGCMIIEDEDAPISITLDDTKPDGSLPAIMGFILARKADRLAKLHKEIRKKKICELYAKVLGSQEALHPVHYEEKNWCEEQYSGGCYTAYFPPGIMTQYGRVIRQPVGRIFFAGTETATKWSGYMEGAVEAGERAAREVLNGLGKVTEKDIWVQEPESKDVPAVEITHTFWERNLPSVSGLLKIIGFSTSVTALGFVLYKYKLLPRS

[6] = molecular target: T3, Amine oxidase [flavin-containing] B (Homo sapiens, UniProt P27338); test: Inhibition of human MAO-B by fluorescence assay
T3 sequence (P27338 whole entry): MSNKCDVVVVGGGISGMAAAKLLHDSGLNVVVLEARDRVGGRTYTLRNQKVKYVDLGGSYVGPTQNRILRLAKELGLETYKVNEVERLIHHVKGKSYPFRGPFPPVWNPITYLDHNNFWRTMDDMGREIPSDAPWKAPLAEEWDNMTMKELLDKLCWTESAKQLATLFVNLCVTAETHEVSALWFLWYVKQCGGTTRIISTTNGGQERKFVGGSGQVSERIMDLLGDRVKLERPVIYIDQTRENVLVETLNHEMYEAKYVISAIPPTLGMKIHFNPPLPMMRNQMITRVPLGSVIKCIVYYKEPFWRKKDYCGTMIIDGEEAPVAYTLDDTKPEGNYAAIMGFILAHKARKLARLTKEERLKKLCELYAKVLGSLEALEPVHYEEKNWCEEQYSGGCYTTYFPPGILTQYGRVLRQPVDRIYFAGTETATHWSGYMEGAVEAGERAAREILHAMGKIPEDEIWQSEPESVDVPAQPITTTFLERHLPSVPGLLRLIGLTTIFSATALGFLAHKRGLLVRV

[7] = molecular target: T3, Amine oxidase [flavin-containing] B; test: Inhibition of human MAO-B at 10 uM by fluorescence assay
[8] = tested on: BV-2; test: Inhibition of LPS-induced ROS production in mouse BV-2 cells at 10 uM by DCFH-DA staining based fluorescence analysis; assay type: functional, cell-based
[9] = tested on: BV-2; test: Antineuroinflammatory activity in mouse BV-2 cells assessed as inhibition of LPS-induced NO production at 0.5 uM after 24 hrs by Griess reagent based assay; assay type: functional
[10] = tested on: BV-2; test: Antineuroinflammatory activity in mouse BV-2 cells assessed as inhibition of LPS-induced NO production at 2.5 uM after 24 hrs by Griess reagent based assay; assay type: functional
[11] = tested on: BV-2; test: Antineuroinflammatory activity in mouse BV-2 cells assessed as inhibition of LPS-induced TNF-alpha production at 10 uM after 24 hrs by ELISA; assay type: functional
[12] = tested on: BV-2; test: Antineuroinflammatory activity in mouse BV-2 cells assessed as inhibition of LPS-induced NO production at 10 uM after 24 hrs by Griess reagent based assay; assay type: functional
[13] = tested on: PC-12; test: Neuroprotective against H2O2-induced rat PC-12 cell injury assessed as cell viability at 10 uM by MTT assay (reference value: 48.0%); assay type: functional; conditions: read-out: Activity
[14] = tested on: BV-2; test: Antineuroinflammatory activity in mouse BV-2 cells assessed as inhibition of LPS-induced TNF-alpha production at 2.5 uM after 24 hrs by ELISA; assay type: functional
[15] = tested on: BV-2; test: Antineuroinflammatory activity in mouse BV-2 cells assessed as inhibition of LPS-induced TNF-alpha production at 0.5 uM after 24 hrs by ELISA; assay type: functional
[16] = molecular target: Acetylcholinesterase (Electrophorus electricus) (UniProt O42275); test: Inhibition of Electric eel AChE at 10 uM by Ellman's method
Acetylcholinesterase (Electrophorus electricus), sequence (O42275 24-633 limits assumed): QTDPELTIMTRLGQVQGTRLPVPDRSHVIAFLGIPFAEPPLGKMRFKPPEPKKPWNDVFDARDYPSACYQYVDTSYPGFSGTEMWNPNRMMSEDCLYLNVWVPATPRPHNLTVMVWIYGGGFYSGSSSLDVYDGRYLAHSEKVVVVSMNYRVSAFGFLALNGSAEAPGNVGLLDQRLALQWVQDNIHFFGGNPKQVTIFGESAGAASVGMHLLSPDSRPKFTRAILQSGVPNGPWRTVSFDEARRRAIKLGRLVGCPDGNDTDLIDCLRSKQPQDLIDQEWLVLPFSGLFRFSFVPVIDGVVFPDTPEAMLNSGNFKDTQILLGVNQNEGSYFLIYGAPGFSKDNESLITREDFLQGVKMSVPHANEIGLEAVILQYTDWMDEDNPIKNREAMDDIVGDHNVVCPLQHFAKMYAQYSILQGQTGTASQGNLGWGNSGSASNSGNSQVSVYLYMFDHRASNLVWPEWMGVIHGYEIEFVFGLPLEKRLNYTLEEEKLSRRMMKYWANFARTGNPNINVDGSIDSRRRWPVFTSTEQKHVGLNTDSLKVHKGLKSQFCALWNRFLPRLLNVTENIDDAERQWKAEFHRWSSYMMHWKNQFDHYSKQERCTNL

[17] = Metal chelating activity assessed as Cu2+-compound complex formation at 37.5 uM by UV-visible spectrophotometry
[18] = tested on: BV-2; test: Inhibition of LPS-induced ROS production in mouse BV-2 cells at 2.5 uM by DCFH-DA staining based fluorescence analysis; assay type: functional, cell-based
[19] = molecular target: T1, Acetylcholinesterase; test: Mixed type inhibition of AChE (unknown origin) by Lineweaver-Burk plot analysis
[20] = tested on: PC-12; test: Neuroprotective against H2O2-induced rat PC-12 cell injury assessed as cell viability at 25 uM by MTT assay (reference value: 48.0%); assay type: functional; conditions: read-out: Activity
[21] = tested on: BV-2; test: Inhibition of LPS-induced ROS production in mouse BV-2 cells assessed as complete reversal at 10 uM by DCFH-DA staining based fluorescence analysis; assay type: functional, cell-based
[22] = tested on: BV-2; test: Cytotoxicity against mouse BV-2 cells at 10 uM in presence of LPS by MTT method; assay type: toxicity, cell-based; conditions: bv-2, 10 µM
[23] = tested on: PC-12; test: Neuroprotective against H2O2-induced rat PC-12 cell injury assessed as cell viability at 4 uM by MTT assay (reference value: 48.0%); assay type: functional; conditions: read-out: Activity
[24] = tested on: BV-2; test: Cytotoxicity against mouse BV-2 cells at 10 uM by MTT method; assay type: toxicity, cell-based; conditions: bv-2, 10 µM
[25] = tested on: PC-12; test: Cytotoxicity against rat PC12 cells assessed as decrease in cell viability at 100 uM by MTT assay; assay type: toxicity, cell-based; conditions: pc-12, 100 µM
[26] = Inhibition of reactive oxygen species production using Cu-ascorbate redox system by coumarin-3-carboxylic acid dye based fluorescence analysis; assay type: functional

T1 sequence (P22303 whole entry): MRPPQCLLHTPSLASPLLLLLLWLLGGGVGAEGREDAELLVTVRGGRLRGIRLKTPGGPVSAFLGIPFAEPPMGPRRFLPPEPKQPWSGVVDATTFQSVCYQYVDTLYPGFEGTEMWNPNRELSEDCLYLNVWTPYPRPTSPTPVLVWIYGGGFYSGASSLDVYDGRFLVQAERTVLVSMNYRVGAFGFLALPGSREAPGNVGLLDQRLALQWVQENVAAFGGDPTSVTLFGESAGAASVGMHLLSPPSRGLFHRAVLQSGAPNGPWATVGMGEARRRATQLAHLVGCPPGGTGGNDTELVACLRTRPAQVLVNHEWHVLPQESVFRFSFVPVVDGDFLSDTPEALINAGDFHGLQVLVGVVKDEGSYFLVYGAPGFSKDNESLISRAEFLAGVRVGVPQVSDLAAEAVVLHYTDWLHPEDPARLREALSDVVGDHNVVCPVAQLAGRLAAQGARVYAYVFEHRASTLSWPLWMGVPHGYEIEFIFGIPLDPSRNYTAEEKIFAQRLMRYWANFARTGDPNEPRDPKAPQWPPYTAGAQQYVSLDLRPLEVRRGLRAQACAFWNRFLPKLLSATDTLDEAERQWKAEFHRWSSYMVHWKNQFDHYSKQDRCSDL

Structure (SMILES) | IC50 [1] | IC50 [2] | inhibition [3] | Activity [4] | inhibition at 10 µM [5] | IC50 [6] | inhibition at 10 µM [7] | further results
CCCCC1OC(=O)c2cc(OCc3ccc(CN4CCCC4)c(O)c3)ccc21 (configuration not stated) | 3.92 µM | 0.89 µM | 10% | 1.73 | 23.7% | 0.94 µM |  | 
CCCCC1OC(=O)c2cc(OCc3ccc(CN4CCN(CC)CC4)c(O)c3)ccc21 (configuration not stated) |  | 14.8 µM | 6.5% | 0.77 | 17.5% | 2.53 µM |  | 
CCCCC1OC(=O)c2cc(OCc3cccc(CN(CC)CC)c3O)ccc21 (configuration not stated) |  | 20.9 µM | < 5% | 2.02 | 20.4% |  | 5.2% | 
CCCCC1OC(=O)c2ccccc21 (racemic) [RAC-3-N-BUTYLPHTHALIDE] |  |  |  | 0.21 |  |  |  | inhibition [8]: Active; inhibition at 0.5 µM [9]: 13.4%; inhibition at 2.5 µM [10]: 22.9%; inhibition at 10 µM [11]: 43.7%; inhibition at 10 µM [12]: 37.2%; viability at 10 µM [13]: 64.1%; inhibition at 2.5 µM [14]: 27.6%; inhibition at 0.5 µM [15]: 15.2%
CCCCC1OC(=O)c2cc(OCc3cccc(CN(CC)Cc4ccccc4)c3O)ccc21 (configuration not stated) |  |  | < 5% | 1.86 | 5.4% |  | 12.5% | inhibition [16]: 15.3%
CCCCC1OC(=O)c2cc(OCc3cccc(CN4CCCCC4)c3O)ccc21 (configuration not stated) |  | 14.5 µM | 14.2% | 1.84 | 20% |  | 12.8% | 
CCCCC1OC(=O)c2cc(OCc3ccc(CN(C)C)c(O)c3)ccc21 (configuration not stated) | 8.78 µM | 5.39 µM | 11.8% | 1.62 | 29% | 6.9 µM |  | 
CCCCC1OC(=O)c2cc(OCc3cccc(CN4CCN(C)CC4)c3O)ccc21 (configuration not stated) |  |  | < 5% | 2.33 | 12.5% |  | 32.3% | inhibition [16]: 29.4%
CCCCC1OC(=O)c2cc(OCc3ccc(CN(CC)CC)c(O)c3)ccc21 (configuration not stated) | 0.35 µM | 0.64 µM | 8.1% | 1.53 | 26.3% | 6.81 µM |  | 
CCCCC1OC(=O)c2cc(OCc3cccc(CN4CCCC4)c3O)ccc21 (configuration not stated) |  | 26.7 µM | 5.8% | 2.38 | 23.5% |  | 6.9% | 
CCCCC1OC(=O)c2cc(OCc3cccc(O)c3)ccc21 (configuration not stated) |  |  | < 5% | 0.88 | 29.3% | 3.3 µM |  | inhibition [16]: 38.6%
CCCCC1OC(=O)c2cc(OCc3cccc(CN4CCOCC4)c3O)ccc21 (configuration not stated) |  | 22.4 µM | 5.8% | 2.14 | 18.4% | 7.63 µM |  | 
CCCCC1OC(=O)c2cc(OCc3ccccc3O)ccc21 (configuration not stated) |  |  | < 5% | 1.03 | 30.3% | 2.07 µM |  | inhibition [16]: 20.3%
CCCCC1OC(=O)c2cc(OCc3ccc(CN4CCOCC4)c(O)c3)ccc21 (configuration not stated) | 3.32 µM | 8.37 µM | < 5% | 1.12 | 27.9% | 1.42 µM |  | 
CCCCC1OC(=O)c2cc(OCc3ccc(CN4CCCCC4)c(O)c3)ccc21 (configuration not stated) | 0.041 µM | 0.087 µM | < 5% | 1.86 | 18.1% | 0.3 µM |  | Activity [17]: Active; inhibition [18]: Active; inhibition [19]: Active; viability at 25 µM [20]: 80.2%; inhibition [21]: Active; inhibition at 0.5 µM [9]: 30.4%; inhibition at 2.5 µM [10]: 43.5%; Activity [22]: Non-Toxic; inhibition at 10 µM [11]: 63.2%; viability at 4 µM [23]: 56.3%; inhibition at 10 µM [12]: 58.9%; viability at 10 µM [13]: 71.1%; Activity [24]: Non-Toxic; Activity [25]: Toxic; inhibition at 2.5 µM [14]: 47.8%; inhibition [26]: Active; inhibition at 0.5 µM [15]: 32.7%
CCCCC1OC(=O)c2cc(OCc3ccc(CN(CC)Cc4ccccc4)c(O)c3)ccc21 (configuration not stated) |  | 20.5 µM | 5.6% | 1.15 | 14.8% | 1.96 µM |  | 
CCCCC1OC(=O)c2cc(OCc3ccc(CN4CCN(C)CC4)c(O)c3)ccc21 (configuration not stated) | 23.8 µM | 13.6 µM | < 5% | 0.96 | 22.5% | 2.39 µM |  | 
CCCCC1OC(=O)c2cc(OCc3cccc(CN4CCN(CC)CC4)c3O)ccc21 (configuration not stated) |  |  | < 5% | 1.67 | 12.8% |  | 28.8% | inhibition [16]: 20.7%
